Source: EP4029501A1, “COMBINATION OF POLYAROMATIC UREA DERIVATIVES AND GLUCOCORTICOID OR HDAC INHIBITOR FOR THE TREATMENT OF DISEASES OR CONDITIONS ASSOCIATED WITH MUSCLE CELLS AND/OR SATELLITE CELLS” (Anagenesis Biotechnologies, priority 2021, dated 2022)

System: muscle progenitors derived from DMD hiPSC
Test: Myotube assay: total myotube area per well (alpha-actinin staining)
Format: cell-based, human
Settings: Homo sapiens, Myotube, 72 h, DMD or WT cell source not given; for Emax: efficacy, MA = normalized Myotube Area, 3 days incubation; for EC50: myogenic activity, half-maximal generation of myotubes, 10 points dose-response 1.5 nM to 30 µM, 3 days
Experimental: An in vitro assay for assessing the efficacy of compounds for use in treating, ameliorating, delaying, curing and/or preventing a disease or condition associated with muscle cells and/or satellite cells is described in example 78. Herein, the generation of myotubes and satellite cells after adding a compound to a myotube assay workflow is assessed. Said myotube assay workflow is derived from wild-type or DMD human induced pluripotent stem cells (WT hiPSC or DMD hiPSC). Before the addition of said compound, the assay comprises satellite-like cells, but no significant amount of myotubes.
The efficacy of said compound for use in treating, ameliorating, delaying, curing and/or preventing a disease or condition associated with muscle cells and/or satellite cells is positively correlated with the generation of myotubes (i.e. the increase of the area occupied by myotubes on the assay) and/or satellite cells (i.e. the increase of the number of satellite cells) in the assay after adding said compound. The generation of myotubes by the addition of said compound is expressed as the EC50 value, the concentration of said compound that corresponds with the half-maximal generation of myotubes, and the MA (normalized myotube area) value, the normalized area occupied by generated myotubes on the assay. […] Since muscle cells are formed from myotubes during myogenesis, the generation of myotubes in the assay is a good indicator of the ability of said compound to induce the formation of functional muscle cells in vivo. The number of satellite cells is measured as the percentage of Pax7 positive cells, relative to the total number of cells in the assay, as shown in Figure 3. The percentage of Pax7 is a good indicator of the ability of said compound to induce the formation of satellite cells which are able to play a role in muscle repair and regeneration in vivo.
DMD human induced pluripotent stem cells (hereafter "DMD hiPSC"), generated from the NCRM-1 hiPSC WT cell line by gene editing, or WT human induced pluripotent stem cells (hereafter "WT hiPSC"), being NCRM-1 hiPSC wt cell line, have been differentiated according to Chal et al. 2015, 2016, to produce muscle progenitors (hereafter "hMP"). The hMP population contains satellite-like cells (i.e Pax7-positive cells) and satellite cells' progenies (i.e. Myogenin-positive cells).
Figure 1 provides an example of a Myotube assay workflow. At day 0, hMP are thawed and 3.1 million cells are plated into a T75-flask coated with hESC-qualified Matrigel™ (Corning) in SkGM proliferating medium (PromoCells), supplemented with 5 µM Y-27632 (Tocris Bioscience). On day 2, SkGM proliferating medium is refreshed. On day 4, hMP are harvested and transferred into a 384-well plate coated with collagen type I at a density of 3500 cells/well in a DMEM-based medium, containing 5% of knockout serum replacement (Gibco), 1% PenStrep (Gibco), 1% MEM NEAA (Gibco) and 0.1 mM 2-mercaptoethanol (Gibco) (hereafter "K5 medium") and 5 µM Y-27632. Compounds to be tested are then added in the medium and incubated for 3 days at 37°C. On day 7, cells are fixed and immunostained. For example, myotubes (alpha-actinin staining) and satellite-like (Pax7 staining) cells can be analyzed for total myotube area per well or Pax7-positive cell quantification.
DMD hMP were put in the Myotube assay according to the workflow described in Example 2.1. In particular, compound (i) was added at concentrations ranging from 1.5 nM to 30 µM, starting from day 4. hMP were cultivated for three more days in presence of compound (i), then fixed and analyzed for quantification of total myotube area per well. Duplicates of each condition were averaged.

| Compound | Emax [%] | EC50 [nM] |
| --- | --- | --- |
| Cc1cc(NC(=O)Nc2ccc(Oc3ccnc4[nH]c(=O)cnc34)cc2F)n(-c2ccccc2)n1 [(a), 1-(2-fluoro-4-((3-oxo-3,4-dihydropyrido[2,3-b]pyrazin-8-yl)oxy)phenyl)-3-(3-methyl-1-phenyl-1 H-pyrazol-5-yl)urea] | 25 to 50 | 500 to 1000 |
| CNC(=O)c1ccc(Oc2cccc(NC(=O)Nc3cc(C(C)(C)C)nn3-c3ccccc3)c2)cn1 [(ab), 5-(3-(3-(3-(tert-butyl)-1-phenyl-1H-pyrazol-5-yl)ureido)phenoxy)-N-methylpicolinamide] | 50 to 75 | 500 to 1000 |
| CC(C)(C)c1cc(NC(=O)Nc2ccc(Oc3ccccc3)cc2F)n(-c2ccccc2)n1 [(ac), 1-(3-(tert-butyl)-1-phenyl-1H-pyrazol-5-yl)-3-(2-fluoro-4-phenoxyphenyl)urea] | 50 to 75 | 1000 to 5000 |
| CC(C)(C)c1cc(NC(=O)Nc2ccc(Oc3ccncc3)cc2F)n(-c2ccccc2)n1 [(ad), 1-(3-(tert-butyl)-1-phenyl-1H-pyrazol-5-yl)-3-(2-fluoro-4-(pyridin-4-yloxy)phenyl)urea] | 25 to 50 | 500 to 1000 |
| CC(=O)Nc1cc(Oc2ccc(NC(=O)Nc3cc(C(C)(C)C)nn3-c3ccccc3)c(F)c2)ccn1 [(ae), N-(4-(4-(3-(3-(tert-butyl)-1-phenyl-1H-pyrazol-5-yl)ureido)-3-fluorophenoxy)pyridin-2-yl)acetamide] | 50 to 75 | ≥ 5000 |
| CC(C)(C)c1cc(NC(=O)Nc2ccc(Oc3ccc(F)cc3)cc2F)n(-c2ccccc2)n1 [(af), 1-(3-(tert-butyl)-1-phenyl-1 H-pyrazol-5-yl)-3-(2-fluoro-4-(4-fluorophenoxy)phenyl)urea] | 25 to 50 | 1000 to 5000 |
| CNC(=O)c1cc(Oc2ccc(NC(=O)Nc3cc(C(C)(C)C)nn3-c3ccc4ncccc4c3)c(SC)c2)ccn1 [(ag), 4-(4-(3-(3-(tert-butyl)-1-(quinolin-6-yl)-1H-pyrazol-5-yl)ureido)-3-(methylthio)phenoxy)-N-methylpicolinamide] | ≥ 75 | 1000 to 5000 |
| CSc1cc(Oc2ccnc3[nH]c(=O)cnc23)ccc1NC(=O)Nc1ncc(C(C)(C)C)s1 [(ah), 1-(5-(tert-butyl)thiazol-2-yl)-3-(2-(methylthio)-4-((3-oxo-3,4-dihydropyrido[2,3-b]pyrazin-8-yl)oxy)phenyl)urea] | ≥ 75 | ≥ 5000 |
| CNC(=O)c1cncc(Oc2ccc(NC(=O)Nc3cc(C(C)(C)C)nn3-c3ccccc3)c(SC)c2)c1 [(ai), 5-(4-(3-(3-(tert-butyl)-1-phenyl-1H-pyrazol-5-yl)ureido)-3-(methylthio)phenoxy)-N-methylnicotinamide] |  | 500 to 1000 |
| CC(C)(C)c1cc(NC(=O)Nc2ccc(Oc3ccnc4[nH]c(=O)cnc34)cc2Cl)n(-c2ccccc2)n1 [(ak), 1-(3-(tert-butyl)-1-phenyl-1H-pyrazol-5-yl)-3-(2-chloro-4-((3-oxo-3,4-dihydropyrido[2,3-b]pyrazin-8-yl)oxy)phenyl)urea] | ≥ 75 | ≥ 5000 |
| Cc1cc(Oc2ccnc3[nH]c(=O)cnc23)ccc1NC(=O)Nc1cc(C(C)(C)C)nn1-c1ccccc1 [(al), 1-(3-(tert-butyl)-1-phenyl-1 H-pyrazol-5-yl)-3-(2-methyl-4-((3-oxo-3,4-dihydropyrido[2,3-b]pyrazin-8-yl)oxy)phenyl)urea] | ≥ 75 | ≥ 5000 |
| CCSc1cc(Oc2ccnc3[nH]c(=O)cnc23)ccc1NC(=O)Nc1cc(C(C)(C)C)nn1-c1ccccc1 [(am), 1-(3-(tert-butyl)-1-phenyl-1 H-pyrazol-5-yl)-3-(2-(ethylthio)-4-((3-oxo-3,4-dihydropyrido[2,3-b]pyrazin-8-yl)oxy)phenyl)urea] | ≥ 75 | < 500 |
| CSc1cc(Oc2ccnc3c2CCC(=O)N3)ccc1NC(=O)Nc1cc(C(C)(C)C)nn1-c1ccccc1 [(an), 1-(3-(tert-butyl)-1-phenyl-1H-pyrazol-5-yl)-3-(2-(methylthio)-4-((7-oxo-5,6,7,8-tetrahydro-1,8-naphthyridin-4-yl)oxy)phenyl)urea] | ≥ 75 | < 500 |
| CSc1cc(Oc2ccnc3[nH]c(=O)cnc23)ccc1NC(=O)Nc1cc(C(C)(C)C)nn1-c1ccc(Cl)cc1 [(ao), 1-(3-(tert-butyl)-1-(4-chlorophenyl)-1H-pyrazol-5-yl)-3-(2-(methylthio)-4-((3-oxo-3,4-dihydropyrido[2,3-b]pyrazin-8-yl)oxy)phenyl)urea] | ≥ 75 | ≥ 5000 |
| CNC(=O)c1ccc(Oc2ccc(NC(=O)Nc3cc(C(C)(C)C)nn3-c3ccccc3)c(SC)c2)cn1 [(ap), 5-(4-(3-(3-(tert-butyl)-1-phenyl-1H-pyrazol-5-yl)ureido)-3-(methylthio)phenoxy)-N-methylpicolinamide] | 25 to 50 | 500 to 1000 |
| CSc1cc(Oc2ccnc(NC(C)=O)c2)ccc1NC(=O)Nc1cc(C(C)(C)C)nn1-c1ccccc1 [(aq), N-(4-(4-(3-(3-(tert-butyl)-1-phenyl-1H-pyrazol-5-yl)ureido)-3-(methylthio)phenoxy)pyridin-2-yl)acetamide] | ≥ 75 | 500 to 1000 |
| CSc1cc(Oc2ccnc3[nH]c(=O)cnc23)ccc1NC(=O)Nc1cc(C(C)(C)C)nn1-c1ccccn1 [(ar), 1-(3-(tert-butyl)-1-(pyridin-2-yl)-1H-pyrazol-5-yl)-3-(2-(methylthio)-4-((3-oxo-3,4-dihydropyrido[2,3-b]pyrazin-8-yl)oxy)phenyl)urea] | ≥ 75 | ≥ 5000 |
| CSc1cc(Oc2ccnc3[nH]c(=O)cnc23)ccc1NC(=O)Nc1cc(C(C)(C)C)nn1-c1cccc(Cl)c1 [(as), 1-(3-(tert-butyl)-1-(3-chlorophenyl)-1H-pyrazol-5-yl)-3-(2-(methylthio)-4-((3-oxo-3,4-dihydropyrido[2,3-b]pyrazin-8-yl)oxy)phenyl)urea] | ≥ 75 | < 500 |
| CSc1cc(Oc2ccnc3[nH]c(=O)cnc23)ccc1NC(=O)Nc1cc(C(C)(C)C)nn1-c1ccccc1Cl [(at), 1-(3-(tert-butyl)-1-(2-chlorophenyl)-1H-pyrazol-5-yl)-3-(2-(methylthio)-4-((3-oxo-3,4-dihydropyrido[2,3-b]pyrazin-8-yl)oxy)phenyl)urea] | ≥ 75 | ≥ 5000 |
| CSc1cc(Oc2ccnc3c2ncc(=O)n3C)ccc1NC(=O)Nc1cc(C(C)(C)C)nn1-c1ccccc1 [(au), 1-(3-(tert-butyl)-1-phenyl-1H-pyrazol-5-yl)-3-(4-((4-methyl-3-oxo-3,4-dihydropyrido[2,3-b]pyrazin-8-yl)oxy)-2-(methylthio)phenyl)urea] | ≥ 75 | ≥ 5000 |
| COc1ccccc1-n1nc(C(C)(C)C)cc1NC(=O)Nc1ccc(Oc2ccnc3[nH]c(=O)cnc23)cc1SC [(av), 1-(3-(tert-butyl)-1-(2-methoxyphenyl)-1H-pyrazol-5-yl)-3-(2-(methylthio)-4-((3-oxo-3,4-dihydropyrido[2,3-b]pyrazin-8-yl)oxy)phenyl)urea] | ≥ 75 |  |
| COc1cccc(-n2nc(C(C)(C)C)cc2NC(=O)Nc2ccc(Oc3ccnc4[nH]c(=O)cnc34)cc2SC)c1 [(aw), 1-(3-(tert-butyl)-1-(3-methoxyphenyl)-1 H-pyrazol-5-yl)-3-(2-(methylthio)-4-((3-oxo-3,4-dihydropyrido[2,3-b]pyrazin-8-yl)oxy)phenyl)urea] | ≥ 75 | 500 to 1000 |
| CSc1cc(Oc2ccnc3[nH]c(=O)cnc23)ccc1NC(=O)Nc1nc(-c2ccc(F)c(F)c2)cs1 [(ax), 1-(4-(3,4-difluorophenyl)thiazol-2-yl)-3-(2-(methylthio)-4-((3-oxo-3,4-dihydropyrido[2,3-b]pyrazin-8-yl)oxy)phenyl)urea] | 50 to 75 | ≥ 5000 |
